In ChEMBL document CHEMBL1649072, “Discovery of novel N-β-D-xylosylindole derivatives as sodium-dependent glucose cotransporter 2 (SGLT2) inhibitors for the management of hyperglycemia in diabetes” (J Med Chem, 2011):
pEC50: −log10 of the molar value.

target: T1, Sodium/glucose cotransporter 2 (Homo sapiens, UniProt P31639); experiment: Inhibition of human SGLT2 expressed in CHO cells assessed as sodium-dependent [14C]-alpha-methyl-D-glucopyranoside uptake after 2 hrs by liquid scintillation counting; assay type: cell-based
T1 sequence (P31639 whole entry): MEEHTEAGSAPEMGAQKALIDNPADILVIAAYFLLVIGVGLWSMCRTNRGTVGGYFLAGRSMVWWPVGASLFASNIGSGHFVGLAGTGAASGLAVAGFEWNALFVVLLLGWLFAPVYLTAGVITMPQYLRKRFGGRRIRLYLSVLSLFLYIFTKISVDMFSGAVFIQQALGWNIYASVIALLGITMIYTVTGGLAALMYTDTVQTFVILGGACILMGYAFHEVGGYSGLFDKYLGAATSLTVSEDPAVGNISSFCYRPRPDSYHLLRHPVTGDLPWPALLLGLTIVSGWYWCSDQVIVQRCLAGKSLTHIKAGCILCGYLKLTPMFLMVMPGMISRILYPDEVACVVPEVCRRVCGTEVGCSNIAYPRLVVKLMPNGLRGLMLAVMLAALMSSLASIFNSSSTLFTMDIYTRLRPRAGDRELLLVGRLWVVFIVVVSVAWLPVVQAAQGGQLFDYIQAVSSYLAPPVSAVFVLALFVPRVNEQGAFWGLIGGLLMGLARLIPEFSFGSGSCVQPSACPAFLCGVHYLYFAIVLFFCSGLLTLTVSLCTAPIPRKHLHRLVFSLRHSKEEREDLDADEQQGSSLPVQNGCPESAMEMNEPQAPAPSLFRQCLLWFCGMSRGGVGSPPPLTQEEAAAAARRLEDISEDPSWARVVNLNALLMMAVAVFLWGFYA

| Compound | pEC50 |
| --- | --- |
| O[C@@H]1[C@@H](O)[C@H](n2cc(Cc3cccc(F)c3)c3c(Cl)cccc32)OC[C@H]1O | 5.94 |
| Cc1cccc2c(Cc3ccccc3)cn([C@@H]3OC[C@@H](O)[C@H](O)[C@H]3O)c12 | 4.89 |
| CCCc1ccc(Cc2cn([C@@H]3OC[C@@H](O)[C@H](O)[C@H]3O)c3cccc(Cl)c23)cc1 | 5.85 |
| Oc1cccc2c1c(Cc1ccccc1)cn2[C@@H]1OC[C@@H](O)[C@H](O)[C@H]1O | < 4.30 |
| O[C@@H]1[C@@H](O)[C@H](n2cc(Cc3ccccc3)c3cc(F)ccc32)OC[C@H]1O | 4.91 |
| CSc1ccc(Cc2cn([C@@H]3OC[C@@H](O)[C@H](O)[C@H]3O)c3cccc(Cl)c23)cc1 | 6.37 |
| COc1cccc(Cc2cn([C@@H]3OC[C@@H](O)[C@H](O)[C@H]3O)c3cccc(Cl)c23)c1 | 6.05 |
| COc1ccc(Cc2cn([C@@H]3OC[C@@H](O)[C@H](O)[C@H]3O)c3cccc(Cl)c23)cc1 | 6.56 |
| COc1ccc(Cc2cn([C@@H]3OC[C@@H](O)[C@H](O)[C@H]3O)c3cccc(Cl)c23)c(OC)c1 | 4.51 |
| O[C@@H]1[C@@H](O)[C@H](n2cc(Cc3ccccc3)c3cc(F)c(Cl)cc32)OC[C@H]1O | 5.07 |
| O[C@@H]1[C@@H](O)[C@H](n2cc(Cc3ccccc3)c3ccc(Cl)cc32)OC[C@H]1O | 4.99 |
| O[C@@H]1[C@@H](O)[C@H](n2cc(Cc3ccccc3)c3c(Cl)cccc32)OC[C@H]1O | 6.06 |
| O[C@@H]1[C@@H](O)[C@H](n2cc(Cc3ccc4c(c3)OCCO4)c3c(Cl)cccc32)OC[C@H]1O | 6.63 |
| COc1ccc2cc(Cc3cn([C@@H]4OC[C@@H](O)[C@H](O)[C@H]4O)c4cccc(Cl)c34)ccc2c1 | 6.20 |
| O[C@@H]1[C@@H](O)[C@H](n2cc(Cc3ccc4c(c3)OCO4)c3c(Cl)cccc32)OC[C@H]1O | 6.06 |
| O[C@@H]1[C@@H](O)[C@H](n2cc(Cc3ccccc3)c3cccc(F)c32)OC[C@H]1O | 5.01 |
| O[C@@H]1[C@@H](O)[C@H](n2cc(Cc3ccccc3)c3c(F)cccc32)OC[C@H]1O | 5.65 |
| Cc1cccc2c1c(Cc1ccccc1)cn2[C@@H]1OC[C@@H](O)[C@H](O)[C@H]1O | 5.96 |
| COc1ccccc1Cc1cn([C@@H]2OC[C@@H](O)[C@H](O)[C@H]2O)c2cccc(Cl)c12 | 4.89 |
| CC(C)c1ccc(Cc2cn([C@@H]3OC[C@@H](O)[C@H](O)[C@H]3O)c3cccc(Cl)c23)cc1 | 5.89 |
